Experimental data as given in ChEMBL document CHEMBL4346705, “(±)-trans-Dihydronarciclasine and (±)-trans-dihydrolycoricidine analogues modified in their ring A: Evaluation of their anticancer activity and a SAR study” (2019).

Experiments:
Assay type in all cases: functional
[1] = tested on: COLO 205; assay: Cytotoxicity against human COLO205 cells assessed as growth inhibition after 48 hrs by sulforhodamine B assay; details: COLO 205, 48 h
[2] = tested on: SR; assay: Cytotoxicity against human SR cells assessed as growth inhibition after 48 hrs by sulforhodamine B assay; details: for CC50: read-out: LC50 (the source's name)
[3] = tested on: NCI-H460; assay: Cytotoxicity against human NCI-H460 cells assessed as growth inhibition after 48 hrs by sulforhodamine B assay; details: NCI-H460, 48 h
[4] = tested on: SNB-19; assay: Cytotoxicity against human SNB19 cells assessed as growth inhibition after 48 hrs by sulforhodamine B assay; details: SNB-19, 48 h
[5] = tested on: BT-549; assay: Cytotoxicity against human BT549 cells assessed as growth inhibition after 48 hrs by sulforhodamine B assay; details: BT-549, 48 h
[6] = tested on: CAKI-1; assay: Cytotoxicity against human Caki1 cells assessed as growth inhibition after 48 hrs by sulforhodamine B assay; details: CAKI-1, 48 h; for CC50: read-out: LC50 (the source's name)
[7] = tested on: KM12; assay: Cytotoxicity against human KM12 cells assessed as growth inhibition after 48 hrs by sulforhodamine B assay; details: KM12, 48 h
[8] = tested on: SF-268; assay: Cytotoxicity against human SF268 cells assessed as growth inhibition after 48 hrs by sulforhodamine B assay; details: SF-268, 48 h
[9] = tested on: MDA-MB-435; assay: Cytotoxicity against human MDA-MB-435 cells assessed as growth inhibition after 48 hrs by sulforhodamine B assay; details: MDA-MB-435, 48 h
[10] = tested on: NCI-H322M; assay: Cytotoxicity against human NCI-H322M cells assessed as growth inhibition after 48 hrs by sulforhodamine B assay; details: for CC50: read-out: LC50 (the source's name)
[11] = tested on: OVCAR-3; assay: Cytotoxicity against human OVCAR3 cells assessed as growth inhibition after 48 hrs by sulforhodamine B assay; details: OVCAR-3, 48 h
[12] = tested on: SK-MEL-5; assay: Cytotoxicity against human SK-MEL-5 cells assessed as growth inhibition after 48 hrs by sulforhodamine B assay; details: SK-MEL-5, 48 h; for CC50: read-out: LC50 (the source's name)
[13] = tested on: SF-295; assay: Cytotoxicity against human SF295 cells assessed as growth inhibition after 48 hrs by sulforhodamine B assay; details: SF-295, 48 h; for CC50: read-out: LC50 (the source's name)
[14] = tested on: SK-MEL-28; assay: Cytotoxicity against human SK-MEL-28 cells assessed as growth inhibition after 48 hrs by sulforhodamine B assay; details: SK-MEL-28, 48 h
[15] = tested on: HOP-62; assay: Cytotoxicity against human HOP62 cells assessed as growth inhibition after 48 hrs by sulforhodamine B assay; details: HOP-62, 48 h; for CC50: read-out: LC50 (the source's name)
[16] = tested on: UACC-257; assay: Cytotoxicity against human UACC257 cells assessed as growth inhibition after 48 hrs by sulforhodamine B assay; details: UACC-257, 48 h
[17] = tested on: HCT-116; assay: Cytotoxicity against human HCT116 cells assessed as growth inhibition after 48 hrs by sulforhodamine B assay; details: HCT-116, 48 h
[18] = tested on: TK-10; assay: Cytotoxicity against human TK10 cells assessed as growth inhibition after 48 hrs by sulforhodamine B assay; details: TK-10, 48 h
[19] = tested on: U-251; assay: Cytotoxicity against human U251 cells assessed as growth inhibition after 48 hrs by sulforhodamine B assay; details: U-251, 48 h
[20] = tested on: T47D; assay: Cytotoxicity against human T47D cells assessed as growth inhibition after 48 hrs by sulforhodamine B assay
[21] = tested on: K562; assay: Cytotoxicity against human K562 cells assessed as growth inhibition after 48 hrs by sulforhodamine B assay; details: K562, 48 h; for CC50: read-out: LC50 (the source's name)
[22] = tested on: SN12C; assay: Cytotoxicity against human SN12C cells assessed as growth inhibition after 48 hrs by sulforhodamine B assay; details: for CC50: read-out: LC50 (the source's name)
[23] = tested on: SF-539; assay: Cytotoxicity against human SF539 cells assessed as growth inhibition after 48 hrs by sulforhodamine B assay; details: SF-539, 48 h
[24] = tested on: HL-60(TB); assay: Cytotoxicity against human HL-60(TB) cells assessed as growth inhibition after 48 hrs by sulforhodamine B assay; details: HL-60, 48 h
[25] = tested on: SW-620; assay: Cytotoxicity against human SW620 cells assessed as growth inhibition after 48 hrs by sulforhodamine B assay; details: SW-620, 48 h
[26] = tested on: PC-3; assay: Cytotoxicity against human PC3 cells assessed as growth inhibition after 48 hrs by sulforhodamine B assay; details: PC-3, 48 h
[27] = tested on: MDA-MB-231; assay: Cytotoxicity against human MDA-MB-231 cells assessed as growth inhibition after 48 hrs by sulforhodamine B assay; details: MDA-MB-231, 48 h
[28] = tested on: SK-MEL-2; assay: Cytotoxicity against human SK-MEL-2 cells assessed as growth inhibition after 48 hrs by sulforhodamine B assay; details: SK-MEL-2, 48 h
[29] = tested on: NCI-H23; assay: Cytotoxicity against human NCI-H23 cells assessed as growth inhibition after 48 hrs by sulforhodamine B assay; details: NCI-H23, 48 h; for CC50: read-out: LC50 (the source's name)
[30] = tested on: UO-31; assay: Cytotoxicity against human UO31 cells assessed as growth inhibition after 48 hrs by sulforhodamine B assay; details: UO-31, 48 h
[31] = tested on: OVCAR-5; assay: Cytotoxicity against human OVCAR5 cells assessed as growth inhibition after 48 hrs by sulforhodamine B assay; details: OVCAR-5, 48 h
[32] = tested on: HT-29; assay: Cytotoxicity against human HT-29 cells assessed as growth inhibition after 48 hrs by sulforhodamine B assay; details: HT-29, 48 h

O=C1NC2C(CC(O)C(O)C2O)c2cc3c(c(O)c21)OCCO3 (racemic)
GI50 [1]: 176 nM | TGI [1]: 410 nM | GI50 [2]: 314 nM | TGI [2]: 36800 nM | CC50 [2]: > 100000 nM | GI50 [3]: 154 nM | LC50 [3]: > 100000 nM | TGI [3]: 1050 nM | GI50 [4]: 155 nM | LC50 [4]: > 100000 nM | TGI [4]: 1030 nM | GI50 [5]: 260 nM | LC50 (concentration killing 50% of cells) [5]: > 100000 nM | TGI [5]: 870 nM | GI50 [6]: 586 nM | TGI [6]: 5470 nM | CC50 [6]: > 100000 nM | GI50 [7]: 187 nM | LC50 [7]: > 100000 nM | TGI [7]: 1210 nM | GI50 [8]: 260 nM | LC50 [8]: > 100000 nM | TGI [8]: 1220 nM | GI50 [9]: 265 nM | LC50 (concentration killing 50% of cells) [9]: 13300 nM | TGI [9]: 1170 nM | GI50 [10]: 105 nM | TGI [10]: 620 nM | CC50 [10]: > 100000 nM | GI50 [11]: 280 nM | LC50 [11]: > 100000 nM | TGI [11]: 960 nM | GI50 [12]: 181 nM | TGI [12]: 470 nM | CC50 [12]: 2220 nM | GI50 [13]: 357 nM | TGI [13]: 2640 nM | CC50 [13]: > 100000 nM | GI50 [14]: 238 nM | LC50 (concentration killing 50% of cells) [14]: 29400 nM | TGI [14]: 890 nM | GI50 [15]: 255 nM | TGI [15]: 910 nM | CC50 [15]: 7270 nM | GI50 [16]: 289 nM | LC50 [16]: > 100000 nM | TGI [16]: 1470 nM | GI50 [17]: 77.7 nM | LC50 [17]: > 100000 nM | TGI [17]: 1310 nM | GI50 [18]: 563 nM | LC50 [18]: > 100000 nM | TGI [18]: 3870 nM | GI50 [19]: 243 nM | LC50 [19]: > 100000 nM | TGI [19]: 14500 nM | GI50 [20]: 143 nM | LC50 (concentration killing 50% of cells) [20]: > 100000 nM | TGI [20]: 900 nM | GI50 [21]: 126 nM | TGI [21]: 10700 nM | CC50 [21]: > 100000 nM | GI50 [22]: 141 nM | TGI [22]: 890 nM | CC50 [22]: > 100000 nM | GI50 [23]: 228 nM | LC50 [23]: 12700 nM | TGI [23]: 740 nM | GI50 [24]: 166 nM | LC50 [24]: > 100000 nM | TGI [24]: 590 nM | GI50 [25]: 222 nM | LC50 [25]: > 100000 nM | TGI [25]: 1220 nM | GI50 [26]: 299 nM | LC50 [26]: > 100000 nM | TGI [26]: 2140 nM | GI50 [27]: 232 nM | LC50 [27]: 13200 nM | TGI [27]: 1160 nM | GI50 [28]: 245 nM | TGI [28]: 930 nM | GI50 [29]: 214 nM | TGI [29]: 870 nM | CC50 [29]: > 100000 nM | GI50 [30]: 316 nM | LC50 [30]: > 100000 nM | TGI [30]: 2460 nM | GI50 [31]: 361 nM | LC50 [31]: > 100000 nM | TGI [31]: 2860 nM | GI50 [32]: 299 nM | LC50 (concentration causing 50% net cell kill) [32]: 96400 nM | TGI [32]: 1330 nM

O=C1NC2C(CC(O)C(O)C2O)c2cc3c(c(O)c21)OCO3 (racemic)
GI50 [1]: 50.5 nM | TGI [1]: 210 nM | GI50 [2]: 52.2 nM | TGI [2]: > 100000 nM | CC50 [2]: > 100000 nM | GI50 [3]: 43.3 nM | TGI [3]: 490 nM | GI50 [4]: 46.6 nM | TGI [4]: 690 nM | GI50 [5]: 178 nM | TGI [5]: 820 nM | GI50 [6]: 91.3 nM | TGI [6]: 690 nM | CC50 [6]: > 100000 nM | GI50 [7]: 44.5 nM | TGI [7]: 320 nM | GI50 [8]: 127 nM | TGI [8]: 800 nM | GI50 [9]: 68.1 nM | TGI [9]: 510 nM | GI50 [10]: 49.6 nM | TGI [10]: 480 nM | CC50 [10]: > 100000 nM | GI50 [11]: 93.3 nM | TGI [11]: 480 nM | GI50 [12]: 71.9 nM | TGI [12]: 360 nM | CC50 [12]: 2220 nM | GI50 [13]: 115 nM | TGI [13]: 770 nM | CC50 [13]: > 100000 nM | GI50 [14]: 62.9 nM | TGI [14]: 480 nM | GI50 [15]: 56.8 nM | TGI [15]: 420 nM | CC50 [15]: > 100000 nM | GI50 [16]: 68.7 nM | TGI [16]: 540 nM | GI50 [17]: 40.4 nM | TGI [17]: 1130 nM | GI50 [18]: 221 nM | TGI [18]: 1680 nM | GI50 [19]: 45.2 nM | TGI [19]: 1010 nM | GI50 [20]: 52.9 nM | TGI [20]: 670 nM | GI50 [21]: 52.9 nM | TGI [21]: > 100000 nM | CC50 [21]: > 100000 nM | GI50 [22]: 69.3 nM | TGI [22]: 800 nM | CC50 [22]: > 100000 nM | GI50 [23]: 81.9 nM | TGI [23]: 460 nM | GI50 [24]: 60.1 nM | TGI [24]: 260 nM | GI50 [25]: 54.5 nM | TGI [25]: 810 nM | GI50 [26]: 164 nM | TGI [26]: 850 nM | GI50 [27]: 100 nM | TGI [27]: 880 nM | GI50 [28]: 56.1 nM | TGI [28]: 250 nM | GI50 [29]: 74.4 nM | TGI [29]: 520 nM | CC50 [29]: > 100000 nM | GI50 [30]: 100 nM | TGI [30]: 1090 nM | GI50 [31]: 170 nM | TGI [31]: 1050 nM | GI50 [32]: 89.6 nM | TGI [32]: 1000 nM
